# From patent publication US20220348564A1, “PHENYL-[1,3]DIOXOLO[4,5-C]PYRIDINYL-PHENYL-, PHENYL-[1,3]DIOXOLO[4,5-C]PYRIDINYL-HETEROARYL-, OR PHENYL-(1,3)DIOXO[4,5-C]PYRIDINYL-PIPERIDINYL-METHYL-OXETANYLMETHYL-1H-BENZO[D]IMIDAZOLE-CARBOXYLIC ACID DERIVATIVES AND METHODS OF USING SAME” (Eccogene (Shanghai) Co., Ltd., priority 2021, published 2022)
# Target: T1, human GLP-1 (Homo sapiens, UniProt P43220)
# T1 construct: expressed in transfected cells
# Assay: h-GLP-1 activity assay (Cisbio cAMP Gs dynamic kit, HTRF)
# Assay type: cell-based
# Conditions: HEK293 cells with stable expression of human GLP-1, relative EC50, 10 nM human GLP-1 = 100% response
# Description: Human GLP-1 agonizing activity was detected in HEK293 cells with stable expression of human GLP-1 by Cisbio cAMP Gs dynamic kit (Catalog #62AM4PEC) according to manufacturer's protocol. Briefly, cells were collected and resuspended in assay buffer containing 0.1% BSA and 0.5 mM of IBMX at concentration to 2.5×10^5 cells/mL. Two μL 5× compound solution and 8 μL cell suspension were added to each well of low-volume 384 white assay plate. After 30 min incubation at 37° C., 5 μL cAMP-d2 working solution and 5 μL anti-cAMP antibody-cryptate were added to each well, and incubate at room temperature for 1 hr. Series dilution of cAMP was used as standard. Human GLP-1 (7-37) was used as positive control and 10 nM human GLP-1 was set as 100% response. HTRF signals were read at 665 and 615 nm with EnVision plate reader and calculated cAMP concentration by intrapolation to the standard curve. The EC50 value of the tested compounds was calculated by fitting the dose response curve using a 4-parameter non-linear regression routine and relative EC50 was presented in Table S.
# T1 sequence (P43220 24-463): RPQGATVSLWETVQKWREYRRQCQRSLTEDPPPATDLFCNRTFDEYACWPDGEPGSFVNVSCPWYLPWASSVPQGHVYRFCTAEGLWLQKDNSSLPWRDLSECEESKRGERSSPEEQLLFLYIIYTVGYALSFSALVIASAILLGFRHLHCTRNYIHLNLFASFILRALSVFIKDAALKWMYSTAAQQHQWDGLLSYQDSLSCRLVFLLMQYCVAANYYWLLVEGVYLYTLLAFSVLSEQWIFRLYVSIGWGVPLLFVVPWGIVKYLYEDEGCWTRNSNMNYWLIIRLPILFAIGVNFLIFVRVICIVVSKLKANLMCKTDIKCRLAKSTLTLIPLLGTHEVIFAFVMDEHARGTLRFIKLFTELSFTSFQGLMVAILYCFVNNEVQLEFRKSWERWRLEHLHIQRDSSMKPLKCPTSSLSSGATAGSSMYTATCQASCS
row,EC50 [nM],SMILES
1,< 20,"CC1(c2ccc(Cl)cc2F)Oc2cccc(C3CCC(Cc4nc5ccc(C(=O)O)cc5n4C[C@@H]4CCO4)OC3)c2O1 (mixture of isomers) [Compound 56, 2-((5-(2-(4-chloro-2-fluorophenyl)-2-methylbenzo[d][1,3]dioxol-4-yl)tetrahydro-2H-pyran-2-yl)methyl)-1-(((S)-oxetan-2-yl)methyl)-1H-benzo[d]imidazole-6-carboxylic acid]"
2,< 20,"O=C(O)c1ccc2nc(Cc3cc(F)c(-c4cccc5c4OC(c4ccc(Cl)cc4F)CO5)cc3F)n(C[C@@H]3CCO3)c2c1 (mixture of isomers) [Compound 60, 2-(4-(3-(4-chloro-2-fluorophenyl)-2,3-dihydrobenzo[b][1,4]dioxin-5-yl)-2,5-difluorobenzyl)-1-(((S)-oxetan-2-yl)methyl)-1H-benzo[d]imidazole-6-carboxylic acid]"
3,> 100,"CCC1(c2ccc(Cl)cc2F)Oc2cccc(-c3ccc(Cc4nc5ccc(C(=O)O)cc5n4C[C@@H]4CCO4)cc3)c2O1 (mixture of isomers) [Compound 7, 2-(4-(2-(4-chloro-2-fluorophenyl)-2-ethylbenzo[d][1,3]dioxol-4-yl)benzyl)-1-(((S)-oxetan-2-yl)methyl)-1H-benzo[d]imidazole-6-carboxylic acid]"
4,< 20,"CC1(c2ccc(Cl)cc2F)Oc2cccc(-c3ccc(Cc4nc5ccc(C(=O)O)cc5n4C[C@@H]4CCO4)cc3)c2O1 (mixture of isomers) [Compound 15, 2-(4-(2-(4-chloro-2-fluorophenyl)-2-methylbenzo[d][1,3]dioxol-4-yl)benzyl)-1-(((S)-oxetan-2-yl)methyl)-1H-benzo[d]imidazole-6-carboxylic acid]"
5,< 20,"CC1(c2ccc(Cl)cc2F)Oc2cccc(-c3ccc(Cc4nc5ccc(C(=O)O)cc5n4C[C@@H]4CCO4)nc3)c2O1 (mixture of isomers) [Compound 16, 2-((5-(2-(4-chloro-2-fluorophenyl)-2-methylbenzo[d][1,3]dioxol-4-yl)pyridin-2-yl)methyl)-1-(((S)-oxetan-2-yl)methyl)-1H-benzo[d]imidazole-6-carboxylic acid]"
6,< 20,"CC1(c2ccc(Cl)cc2F)Oc2cccc(-c3cnc(Cc4nc5ccc(C(=O)O)cc5n4C[C@@H]4CCO4)nc3)c2O1 (mixture of isomers) [Compound 17, 2-((5-(2-(4-chloro-2-fluorophenyl)-2-methylbenzo[d][1,3]dioxol-4-yl)pyrimidin-2-yl)methyl)-1-(((S)-oxetan-2-yl)methyl)-1H-benzo[d]imidazole-6-carboxylic acid]"
7,20 to 100,"CC1(c2ccc(Cl)cc2F)Oc2cccc(-c3ncc(Cc4nc5ccc(C(=O)O)cc5n4C[C@@H]4CCO4)cn3)c2O1 (mixture of isomers) [Compound 21, 2-((2-(2-(4-chloro-2-fluorophenyl)-2-methylbenzo[d][1,3]dioxol-4-yl)pyrimidin-5-yl)methyl)-1-(((S)-oxetan-2-yl)methyl)-1H-benzo[d]imidazole-6-carboxylic acid]"
8,20 to 100,"CC1(c2ccc(Cl)cc2F)Oc2cccc(-c3ccn(Cc4nc5ccc(C(=O)O)cc5n4C[C@@H]4CCO4)c(=O)c3)c2O1 (mixture of isomers) [Compound 22, 2-((4-(2-(4-chloro-2-fluorophenyl)-2-methylbenzo[d][1,3]dioxol-4-yl)-2-oxopyridin-1(2H)-yl)methyl)-1-(((S)-oxetan-2-yl)methyl)-1H-benzo[d]imidazole-6-carboxylic acid]"
9,> 100,"CC1(c2ccc(Cl)cc2F)Oc2cccc(C3CC4(C3)CN(Cc3nc5ccc(C(=O)O)cc5n3C[C@@H]3CCO3)C4)c2O1 (mixture of isomers) [Compound 23, 2-((6-(2-(4-chloro-2-fluorophenyl)-2-methylbenzo[d][1,3]dioxol-4-yl)-2-azaspiro[3.3]heptan-2-yl)methyl)-1-(((S)-oxetan-2-yl)methyl)-1H-benzo[d]imidazole-6-carboxylic acid]"
10,> 100,"CC1(c2ccc(Cl)cc2F)Oc2cccc(-c3nc(Cc4nc5ccc(C(=O)O)cc5n4C[C@@H]4CCO4)cs3)c2O1 (mixture of isomers) [Compound 25, 2-((2-(2-(4-chloro-2-fluorophenyl)-2-methylbenzo[d][1,3]dioxol-4-yl)thiazol-4-yl)methyl)-1-(((S)-oxetan-2-yl)methyl)-1H-benzo[d]imidazole-6-carboxylic acid]"
11,< 20,"CC1(c2ccc(C(F)(F)F)cc2F)Oc2cccc(-c3ccc(Cc4nc5ccc(C(=O)O)cc5n4C[C@@H]4CCO4)cc3)c2O1 (mixture of isomers) [Compound 26, 2-(4-(2-(2-fluoro-4-(trifluoromethyl)phenyl)-2-methylbenzo[d][1,3]dioxol-4-yl)benzyl)-1-(((S)-oxetan-2-yl)methyl)-1H-benzo[d]imidazole-6-carboxylic acid]"
12,> 100,"O=C(O)c1ccc2nc(CN3CCC(c4cccc5c4CC(c4ccc(Cl)cn4)O5)CC3)n(C[C@@H]3CCO3)c2c1 (mixture of isomers) [Compound 27, 2-((4-(2-(5-chloropyridin-2-yl)-2,3-dihydrobenzofuran-4-yl)piperidin-1-yl)methyl)-1-(((S)-oxetan-2-yl)methyl)-1H-benzo[d]imidazole-6-carboxylic acid]"
13,> 100,"O=C(O)c1ccc2nc(Cc3ccc(-c4cccc5c4NC(=O)C(c4ccc(Cl)cc4F)O5)cc3)n(C[C@@H]3CCO3)c2c1 (mixture of isomers) [Compound 42, 2-(4-(2-(4-chloro-2-fluorophenyl)-3-oxo-3,4-dihydro-2H-benzo[b][1,4]oxazin-5-yl)benzyl)-1-(((S)-oxetan-2-yl)methyl)-1H-benzo[d]imidazole-6-carboxylic acid]"
14,< 20,"Cc1cc(Cc2nc3ccc(C(=O)O)cc3n2C[C@@H]2CCO2)ccc1-c1cccc2c1OC(C)(c1ccc(Cl)cc1F)O2 (mixture of isomers) [Compound 43, 2-(4-(2-(4-chloro-2-fluorophenyl)-2-methylbenzo[d][1,3]dioxol-4-yl)-3-methylbenzyl)-1-(((S)-oxetan-2-yl)methyl)-1H-benzo[d]imidazole-6-carboxylic acid]"
15,> 100,"CC1(c2ccc(Cl)cc2F)Oc2cccc(C3CCC(Cc4nc5ccc(C(=O)O)cc5n4C[C@@H]4CCO4)CO3)c2O1 (mixture of isomers) [Compound 58, 2-((6-(2-(4-chloro-2-fluorophenyl)-2-methylbenzo[d][1,3]dioxol-4-yl)tetrahydro-2H-pyran-3-yl)methyl)-1-(((S)-oxetan-2-yl)methyl)-1H-benzo[d]imidazole-6-carboxylic acid]"
16,< 20,"CC1(c2ccc(Cl)cc2F)Oc2cccc(C3=CCC(Cc4nc5ccc(C(=O)O)cc5n4C[C@@H]4CCO4)OC3)c2O1 (mixture of isomers) [Compound 61, 2-((5-(2-(4-chloro-2-fluorophenyl)-2-methylbenzo[d][1,3]dioxol-4-yl)-3,6-dihydro-2H-pyran-2-yl)methyl)-1-(((S)-oxetan-2-yl)methyl)-1H-benzo[d]imidazole-6-carboxylic acid]"
17,20 to 100,"CC1(c2ccc(Cl)cc2F)Oc2c(cccc2C2CCN(Cc3nc4ccc(C(=O)O)cc4n3C[C@@H]3CCO3)CC2)NC1=O (mixture of isomers) [Compound 68, 2-((4-(2-(4-chloro-2-fluorophenyl)-2-methyl-3-oxo-3,4-dihydro-2H-benzo[b][1,4]oxazin-8-yl)piperidin-1-yl)methyl)-1-(((S)-oxetan-2-yl)methyl)-1H-benzo[d]imidazole-6-carboxylic acid]"
18,20 to 100,"O=C(O)c1ccc2nc(CC3CC=C(c4cccc5c4OC(c4ccc(Cl)cc4F)CO5)CO3)n(C[C@@H]3CCO3)c2c1 (mixture of isomers) [Compound 70, 2-((5-(3-(4-chloro-2-fluorophenyl)-2,3-dihydrobenzo[b][1,4]dioxin-5-yl)-3,6-dihydro-2H-pyran-2-yl)methyl)-1-(((S)-oxetan-2-yl)methyl)-1H-benzo[d]imidazole-6-carboxylic acid]"
19,> 100,"O=C(O)c1ccc2nc(CC3CC(c4cccc(OCc5ccc(Cl)cc5F)n4)CO3)n(C[C@@H]3CCO3)c2c1 (mixture of isomers) [Compound 71, 2-((4-(6-((4-chloro-2-fluorobenzyl)oxy)pyridin-2-yl)tetrahydrofuran-2-yl)methyl)-1-(((S)-oxetan-2-yl)methyl)-1H-benzo[d]imidazole-6-carboxylic acid]"
20,> 100,"O=C(O)c1ccc2nc(CN3CC=C(c4cccc5c4OC(c4ccc(Cl)cc4F)C(=O)N5)CC3)n(C[C@@H]3CCO3)c2c1 (mixture of isomers) [Compound 81, 2-((4-(2-(4-chloro-2-fluorophenyl)-3-oxo-3,4-dihydro-2H-benzo[b][1,4]oxazin-8-yl)-3,6-dihydropyridin-1(2H)-yl)methyl)-1-(((S)-oxetan-2-yl)methyl)-1H-benzo[d]imidazole-6-carboxylic acid]"
21,> 100,"CC1(c2ccc(Cl)cn2)COc2cccc(C3CCN(Cc4nc5ccc(C(=O)O)cc5n4C[C@@H]4CCO4)CC3)c2OC1 (mixture of isomers) [Compound 86, 2-((4-(3-(5-chloropyridin-2-yl)-3-methyl-3,4-dihydro-2H-benzo[b][1,4]dioxepin-6-yl)piperidin-l-yl)methyl)-1-(((S)-oxetan-2-yl)methyl)-1H-benzo[d]imidazole-6-carboxylic acid]"
22,20 to 100,"O=C(O)c1ccc2nc(CN3CCC(c4cccc5c4OC(c4ccc(Cl)cc4F)C(=O)N5)CC3)n(C[C@@H]3CCO3)c2c1 (mixture of isomers) [Compound 104, 2-((4-(2-(4-chloro-2-fluorophenyl)-3-oxo-3,4-dihydro-2H-benzo[b][1,4]oxazin-8-yl)piperidin-1-yl)methyl)-1-(((S)-oxetan-2-yl)methyl)-1H-benzo[d]imidazole-6-carboxylic acid]"
